In the CheMixHub ionic liquid set:

Assay: xn = mol fraction of the nth substance listed

NC(=O)C[C@H](N)C(=O)O + CCCC[N+](CCCC)(CCCC)Cc1ccccc1.[Cl-] + O
electrical conductivity [S/m], 100 kPa, frequency 0.001 MHz
Conditions	293.15 K	298.15 K	303.15 K	308.15 K	313.15 K
x1 = 0.0001802, x2 = 1.802e-05	0.0457	0.0482	0.0503	0.052	0.0553
x1 = 0.0001803, x2 = 5.405e-05	0.0516	0.0545	0.0572	0.0607	0.0639
x1 = 0.0001804, x2 = 9.008e-05	0.0589	0.066	0.0748	0.0813	0.0899
x1 = 0.0004504, x2 = 1.801e-05	0.0517	0.0574	0.059	0.0615	0.0657
x1 = 0.0004507, x2 = 5.403e-05	0.0603	0.0634	0.0663	0.0714	0.0753
x1 = 0.000451, x2 = 9.005e-05	0.0728	0.0771	0.0832	0.0889	0.0937
x1 = 0.0007205, x2 = 1.801e-05	0.057	0.0653	0.0683	0.0709	0.0773
x1 = 0.0007209, x2 = 5.402e-05	0.0678	0.072	0.0765	0.0809	0.0884
x1 = 0.0007213, x2 = 9.003e-05	0.0805	0.087	0.0917	0.0967	0.104
x1 = 0.0009904, x2 = 1.8e-05	0.0635	0.0749	0.0776	0.0796	0.0859
x1 = 0.000991, x2 = 5.4e-05	0.0716	0.0812	0.0854	0.0913	0.0954
x1 = 0.0009916, x2 = 9e-05	0.0886	0.0965	0.102	0.104	0.111
x1 = 0.00126, x2 = 1.8e-05	0.0698	0.0826	0.0859	0.0888	0.0951
x1 = 0.001261, x2 = 5.399e-05	0.0783	0.0903	0.0935	0.0999	0.113
x1 = 0.001262, x2 = 8.998e-05	0.102	0.105	0.108	0.112	0.127
x1 = 0.00153, x2 = 1.799e-05	0.086	0.092	0.0943	0.0983	0.11
x1 = 0.001531, x2 = 5.397e-05	0.0934	0.0997	0.105	0.108	0.115
x1 = 0.001532, x2 = 8.995e-05	0.107	0.111	0.116	0.121	0.138

viscosity [mPa·s], 100 kPa
Conditions	293.15 K	298.15 K	303.15 K	308.15 K	313.15 K
x1 = 0.0001802, x2 = 1.802e-05	0.959	0.919	0.882	–	–
x1 = 0.0001803, x2 = 5.405e-05	0.967	0.926	0.885	–	–
x1 = 0.0001804, x2 = 9.008e-05	0.978	0.935	0.898	–	–
x1 = 0.0004504, x2 = 1.801e-05	0.965	0.925	0.888	0.851	0.798
x1 = 0.0004507, x2 = 5.403e-05	0.974	0.932	0.892	0.858	0.802
x1 = 0.000451, x2 = 9.005e-05	0.985	0.941	0.904	0.862	0.81
x1 = 0.0007205, x2 = 1.801e-05	0.97	0.931	0.894	0.857	0.804
x1 = 0.0007209, x2 = 5.402e-05	0.98	0.938	0.898	0.864	0.809
x1 = 0.0007213, x2 = 9.003e-05	0.992	0.947	0.91	0.868	0.817
x1 = 0.0009904, x2 = 1.8e-05	0.975	0.936	0.899	0.863	0.81
x1 = 0.000991, x2 = 5.4e-05	0.985	0.943	0.904	0.87	0.815
x1 = 0.0009916, x2 = 9e-05	0.997	0.952	0.916	0.874	0.825
x1 = 0.00126, x2 = 1.8e-05	0.98	0.941	0.905	0.869	0.817
x1 = 0.001261, x2 = 5.399e-05	0.99	0.948	0.909	0.877	0.822
x1 = 0.001262, x2 = 8.998e-05	1.003	0.958	0.922	0.88	0.831
x1 = 0.00153, x2 = 1.799e-05	0.984	0.946	0.91	0.875	0.823
x1 = 0.001531, x2 = 5.397e-05	0.995	0.954	0.915	0.883	0.829
x1 = 0.001532, x2 = 8.995e-05	1.008	0.964	0.929	0.887	0.839

OC1OC[C@@H](O)[C@H](O)[C@H]1O (stereo partly drawn) + O + CCCCCCCCn1cc[n+](C)c1.[Br-]
298.15 K, 101 kPa
Conditions	viscosity [mPa·s]
x1 = 0.0001923, x3 = 0.001831	0.966
x1 = 0.0001932, x3 = 0.003598	1.027
x1 = 0.0002045, x3 = 0.00713	1.178
x1 = 0.0002136, x3 = 0.005442	1.104
x1 = 0.0003697, x3 = 0.00183	0.97
x1 = 0.0003826, x3 = 0.003597	1.03
x1 = 0.0004154, x3 = 0.005441	1.11
x1 = 0.00056, x3 = 0.00183	0.976
x1 = 0.0005832, x3 = 0.003596	1.035
x1 = 0.000592, x3 = 0.00544	1.115
x1 = 0.0006052, x3 = 0.007127	1.189
x1 = 0.0007465, x3 = 0.00183	0.981
x1 = 0.0007705, x3 = 0.003595	1.04
x1 = 0.0007917, x3 = 0.005439	1.121
x1 = 0.0008153, x3 = 0.007126	1.195
x1 = 0.0009407, x3 = 0.003595	1.044
x1 = 0.0009495, x3 = 0.001829	0.985
x1 = 0.0009701, x3 = 0.005438	1.127
x1 = 0.0009957, x3 = 0.007124	1.202
x1 = 0.001112, x3 = 0.001829	0.989
x1 = 0.001145, x3 = 0.003594	1.051
x1 = 0.00115, x3 = 0.005437	1.13
x1 = 0.001216, x3 = 0.007123	1.207
x1 = 0.001289, x3 = 0.001829	0.993
x1 = 0.001332, x3 = 0.003593	1.054
x1 = 0.00134, x3 = 0.005436	1.135
x1 = 0.00141, x3 = 0.007121	1.213
x1 = 0.001459, x3 = 0.001828	0.996
x1 = 0.00151, x3 = 0.003593	1.059
x1 = 0.00153, x3 = 0.005435	1.14
x1 = 0.001602, x3 = 0.00712	1.219
x1 = 0.001647, x3 = 0.001828	1
x1 = 0.001708, x3 = 0.003592	1.065
x1 = 0.001741, x3 = 0.005433	1.147
x1 = 0.001813, x3 = 0.007119	1.224

[N-]=C=S.[NH4+] + CC(=O)[O-].CC[n+]1ccn(C)c1
101 kPa
Conditions	electrical conductivity [S/m]	viscosity [mPa·s]
298.15 K, x1 = 0.3001	0.344	194.6
298.15 K, x1 = 0.3199	0.353	195.4
303.15 K, x1 = 0.1002	0.371	117.6
303.15 K, x1 = 0.1998	0.386	139.3
303.15 K, x1 = 0.3001	0.447	141.9
308.15 K, x1 = 0.1998	0.491	104
308.15 K, x1 = 0.2514	0.525	–
308.15 K, x1 = 0.3413	0.587	–
313.15 K, x1 = 0.3413	0.807	81.7
318.15 K, x1 = 0.1998	0.852	61.5
328.15 K, x1 = 0.1002	–	34.29
328.15 K, x1 = 0.3199	–	39.29
333.15 K, x1 = 0.02	–	25.64
333.15 K, x1 = 0.1002	–	28.06
333.15 K, x1 = 0.1998	–	31.2
333.15 K, x1 = 0.3001	–	31.43

CCCC[N+]1(C)CCCC1.O=S(=O)([O-])C(F)(F)F + CC#N
viscosity [mPa·s], 101 kPa
Conditions	288.15 K	293.15 K	298.15 K
x1 = 0.0008322	0.377	0.358	0.34
x1 = 0.001153	0.379	0.359	0.342
x1 = 0.001607	0.381	0.361	0.345
x1 = 0.002041	0.383	0.364	0.347
x1 = 0.002439	0.386	0.366	0.349
x1 = 0.002832	0.388	0.368	0.351
x1 = 0.003272	0.39	0.369	0.353
x1 = 0.003684	0.392	0.372	0.355
x1 = 0.004131	0.394	0.374	0.357
x1 = 0.00964	0.423	0.404	0.386
x1 = 0.01639	0.458	0.437	0.417
x2 = 0.9756	0.498	0.473	0.45

CC(=O)[O-].CCC[NH3+] + O
298.15 K, 101 kPa
Conditions	electrical conductivity [S/m]
x1 = 0.0032	0.713
x1 = 0.005	0.905
x1 = 0.0101	1.43
x1 = 0.0169	1.47
x2 = 0	0.043
x2 = 0.1576	0.082
x2 = 0.3525	0.165
x2 = 0.5506	0.401
x2 = 0.6999	0.685
x2 = 0.7885	0.937
x2 = 0.8198	1.06
x2 = 0.8501	1.18
x2 = 0.8849	1.34
x2 = 0.9041	1.44
x2 = 0.9082	1.47
x2 = 0.9305	1.59
x2 = 0.9455	1.65
x2 = 0.965	1.65
x2 = 0.9742	1.61

OCCO + CC[n+]1ccn(C)c1.O=S(=O)([O-])C(F)(F)F
100 kPa, x1 = 1
Conditions	viscosity [mPa·s]
308.15 K	11.16
318.15 K	7.91

CCCCCCCCCC[N+](C)(C)C.[Br-] + O
298.15 K, 101 kPa
Conditions	viscosity [mPa·s]
x1 = 9.063e-05	0.9026
x1 = 0.0001809	0.9052
x1 = 0.0002674	0.9071
x1 = 0.0003644	0.9089
x1 = 0.0004939	0.9162
x1 = 0.000699	0.9255
x1 = 0.0009049	0.9331
x1 = 0.00108	0.939
x1 = 0.001236	0.9459
x1 = 0.001415	0.9542
x1 = 0.001504	0.9589
x1 = 0.001656	0.9675
x1 = 0.001835	0.9775
